Data set [1] has as its system tonic hind limb extensor seizure. In words: Maximal Electro Shock Threshold (MEST). In kind it is in vivo. Conditions: 3, 10 and 30 mg/kg subcutaneously, 30 min before test; vs vehicle 10% HPβCD; rats. From the text: Naïve rats were acclimatised to the procedure room in their home cages, with food and water available ad libitum. All rats were weighed at the beginning of the study and randomly assigned to treatment groups. […] Rats were individually assessed for the production of a tonic hind limb extensor seizure using a Hugo Sachs Electronik stimulator, which delivered an adjustable constant current (1-300 mA) of 0.3 seconds duration via corneal electrodes. The stimulus intensity was varied, from a typical baseline of 25 mA, by an ‘up and down’ method of shock titration. […] This procedure continued for all rats within a treatment group. […] Significant differences between drug-treated animals and vehicle were assessed according to Litchfield and Wilcoxon (Litchfield J, Wilcoxon F. A simplified method for evaluating dose-effect experiments. J Pharmacol Exp Ther. 1949; 96(1): 99-113).

The subject of data set [2] is high frequency oscillation. In words: Resting state Electroencephalography (rsEEG). In kind it is in vivo. Particulars: 20 mg/kg subcutaneously in 10% HPβCD; 30-40 min after dosing; vs vehicle; rats. Here is the method: On the day of surgery, rats (270-300 g) were anesthetized with a 0.25 ml/100 g subcutaneous (SC) injection of 1:1 hypnorm/Dormicum and mounted in a stereotaxic frame (David Kopf Instruments, Tujunga, Calif., USA) with blunt ear bars. Marcain (0.2 ml SC) was injected under the scalp, and gel (Neutral Opthta Eye Gel) put on the eyes to prevent the mucous membrane drying out. Holes were burred in the skull to allow for placement of two depth electrodes (E363-series; PlasticsOne, Roanoke, Va., USA) in left and right pre/infralimbic PFC (AP: 3.0 mm from the bregma suture, Medial-Lateral (ML): +/−0.7 mm from the sagittal suture and DV: 3.0 mm from the dura) and thalamus (AP: −2.8 mm from the bregma suture, ML: +0.7 mm from the sagittal suture and DV: 4.4 mm from the dura) and three screw electrodes at vertex (AP: −2 mm from the bregma suture, ML: +2.0 mm from the sagittal suture), a reference electrode (AP: +8.0 mm and ML: −2.0 mm), and a ground electrode (AP: −5 mm, ML: +5 mm). […] Animal bodyweights were recorded daily. […]
The development of the locomotive state-detection algorithm and the state-specific pharmaco-EEG analyses were carried out in MATLAB R2017a (The MathWorks, Inc., Natick, Mass., USA) using functions from the sigTOOL toolbox. Significant differences between drug-treated animals and vehicle were assessed according to Turkey's honest significant difference.

The next data set relates to time of immobility. Kind of data set: Forced swim test. It is filed as in vivo. Particulars: 3, 10 and 30 mg/kg subcutaneously, 24 h before test; vs vehicle; Wistar Kyoto rats. Here is the method:
Adult male Wistar Kyoto rats from Envigo (former Harlan; Blackthorn, UK). Animals are maintained under controlled conditions (21±1° C., 37±1%, 12/12 h light/dark cycles, lights on at 8 a.m.) with food and water available ad libitum. In all studies WKY rats were randomly allocated to a maximum of 5 treatment groups (n=20 per group). […] The dosing of the animals were performed by subcutaneous injection 24 h before test g. The WKY rats were individually placed into a glass cylinder (50 cm height, 20 cm diameter) containing 30 cm of water at 25±1° C. for a 5 min test phase. The test session recorded (using a video camera placed above the cylinder for subsequent behavioural analysis) the time of immobility (s). One-way analysis of variance (ANOVA) was used to detect statistical significance in the FST data. The Fisher least significant difference (LSD) test was used for post hoc analyses. Probability values of P<0.05 were considered as statistically significant. Statistical analyses were performed using SPSS.

Data set [3] addresses NR1s1s2 (ligand binding domains of the NMDA receptor), glycine site. Particulars: radioligand parameter stated in assay method; obtained from Sigma Aldrich; cited from earlier work.

SMILES strings stand for the structures. “Also recorded” adds a separate entry of the source.

Take `COC(=O)[C@H](N)CNC(=O)c1cc2nccc(C)c2s1` [Compound 2c, Methyl (R)-2-amino-3-(7-methylthieno[3,2-b]pyridine-2-carboxamido)propanoate]: the “effects on the maximal electro shock threshold (seizure threshold CC50 current)” value in data set [1] is “dose dependent effects”. In addition, the “effects in resting state Electroencephalography (high frequency oscillation, baseline-normalized power)” value in data set [2] is “significant effects in high frequency oscillation; also recorded: significant effects in resting state Electroencephalography”. Moreover, the “time of immobility in forced swim test” value with time of immobility is “significant effects in time of immobility at the 30 mg/kg dose”.

Usually Kd stands for the constant that tells how readily two partners part at equilibrium. Regarding `O=C(O)C(=Cc1c(C(=O)O)[nH]c2cc(Cl)cc(Cl)c12)c1ccccc1` [[3H]-MDL-105,519], the Kd in data set [3] was 1.3 nM.

The values are drawn from US11358971B2, “Prodrugs of modulators of the NMDA receptor” (H. Lundbeck A/S, priority 2019, dated 2022).
